Assay results reported in the supplement of paper PMC10307832.

How the values were obtained:
Assay in all cases: relative viability (nuclei count vs DMSO), 5 days (fraction); higher = more cells survive
MLN4924 + Pictilisib = compound: NS(=O)(=O)OC[C@@H]1C[C@@H](n2ccc3c(N[C@H]4CCc5ccccc54)ncnc32)C[C@@H]1O [MLN4924] + CS(=O)(=O)N1CCN(Cc2cc3nc(-c4cccc5[nH]ncc45)nc(N4CCOCC4)c3s2)CC1 [Pictilisib] (partner 1 µM)
In short: (§1)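 Lung cancer cell lines, seeded in 1536-well plates, were treated the following day by pin tool with a single drug or with five library-drug doses (not always all listed) in √10 steps on top of a fixed anchor-drug dose. Cells were fixed and nuclei stained in one step after 5 days, and nuclei were counted. Relative viability is the nuclei count for treated wells divided by that for vehicle wells, reported as medians of duplicate plates.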

GSK126 + OSI-027 = compound: CC[C@H](C)N1C=C(C2=C(C=C(C=C21)C3=CN=C(C=C3)N4CCNCC4)C(=O)NCC5=C(C=C(NC5=O)C)C)C [GSK126] + COc1cccc2cc(-c3nc([C@H]4CC[C@H](C(=O)O)CC4)n4ncnc(N)c34)[nH]c12 [OSI-027] (partner 0.5 µM)
In short: as §1

MLN4924 + Palbociclib = compound: NS(=O)(=O)OC[C@@H]1C[C@@H](n2ccc3c(N[C@H]4CCc5ccccc54)ncnc32)C[C@@H]1O [MLN4924] + CC(=O)c1c(C)c2cnc(Nc3ccc(N4CCNCC4)cn3)nc2n(C2CCCC2)c1=O [Palbociclib] (partner 0.5 µM)
In short: as §1

MLN4924 + Foretinib = compound: NS(=O)(=O)OC[C@@H]1C[C@@H](n2ccc3c(N[C@H]4CCc5ccccc54)ncnc32)C[C@@H]1O [MLN4924] + COc1cc2c(Oc3ccc(NC(=O)C4(C(=O)Nc5ccc(F)cc5)CC4)cc3F)ccnc2cc1OCCCN1CCOCC1 [Foretinib] (partner 0.25 µM)
In short: as §1

Cell Line | relative viability (MLN4924 + Pictilisib; first compound 0.04 µM) | relative viability (MLN4924 + Pictilisib; first compound 0.1265 µM) | relative viability (MLN4924 + Pictilisib; first compound 0.4 µM) | relative viability (MLN4924 + Pictilisib; first compound 1.265 µM) | relative viability (MLN4924 + Pictilisib; first compound 4 µM) | relative viability (GSK126 + OSI-027; first compound 0.08 µM) | relative viability (GSK126 + OSI-027; first compound 0.253 µM) | relative viability (GSK126 + OSI-027; first compound 0.8 µM) | relative viability (GSK126 + OSI-027; first compound 2.53 µM) | relative viability (GSK126 + OSI-027; first compound 8 µM) | relative viability (MLN4924 + Palbociclib; first compound 0.04 µM) | relative viability (MLN4924 + Palbociclib; first compound 0.1265 µM) | relative viability (MLN4924 + Palbociclib; first compound 0.4 µM) | relative viability (MLN4924 + Palbociclib; first compound 1.265 µM) | relative viability (MLN4924 + Palbociclib; first compound 4 µM) | relative viability (MLN4924 + Foretinib; first compound 0.04 µM) | relative viability (MLN4924 + Foretinib; first compound 0.1265 µM) | relative viability (MLN4924 + Foretinib; first compound 0.4 µM) | relative viability (MLN4924 + Foretinib; first compound 1.265 µM) | relative viability (MLN4924 + Foretinib; first compound 4 µM)
NCI-H1793 | 0.322 | 0.284 | 0.273 | 0.245 | 0.121 | 0.288 | 0.241 | 0.318 | 0.248 | 0.32 | 0.338 | 0.295 | 0.442 | 0.265 | 0.214 | 0.822 | 1.08 | 0.957 | 0.461 | 0.256
NCI-H1915 | 0.773 | 0.81 | 0.59 | 0.215 | 0.201 | 0.609 | 0.622 | 0.704 | 0.655 | 0.594 | 0.501 | 0.396 | 0.389 | 0.161 | 0.121 | 1.07 | 0.929 | 0.906 | 0.314 | 0.232
NCI-H1944 | 0.405 | 0.38 | 0.376 | 0.182 | 0.178 | 0.456 | 0.423 | 0.423 | 0.369 | 0.449 | 0.374 | 0.371 | 0.366 | 0.197 | 0.178 | 0.771 | 0.58 | 0.301 | 0.182 | 0.161
NCI-H1975 | 0.534 | 0.699 | 0.314 | 0.167 | 0.156 | 0.867 | 0.81 | 0.747 | 0.749 | 0.722 | 0.549 | 0.696 | 0.707 | 0.557 | 0.231 | 0.962 | 1.08 | 1.27 | 0.488 | 0.207
NCI-H1993 | 0.701 | 0.681 | 0.7 | 0.647 | 0.643 | 0.492 | 0.53 | 0.557 | 0.542 | 0.541 | 0.792 | 0.428 | 0.422 | 0.362 | 0.377 | 0.624 | 0.59 | 0.517 | 0.553 | 0.602
NCI-H2009 | 0.456 | 0.159 | 0.236 | 0.0505 | 0.0867 | 0.789 | 0.544 | 0.64 | 0.682 | 0.72 | 0.0712 | 0.0898 | 0.0671 | 0.0534 | 0.0501 | 1.02 | 0.494 | 0.344 | 0.193 | 0.104
NCI-H2023 | 0.315 | 0.145 | 0.101 | 0.0651 | 0.0705 | 0.595 | 0.388 | 0.447 | 0.495 | 0.527 | 0.496 | 0.366 | 0.207 | 0.0822 | 0.0604 | 0.987 | 0.719 | 0.406 | 0.0781 | 0.0729
NCI-H2085 | 0.479 | 0.719 | 0.594 | 0.457 | 0.42 | 0.919 | 0.716 | 0.839 | 0.683 | 0.812 | 0.489 | 0.505 | 0.587 | 0.556 | 0.416 | 1.04 | 0.855 | 0.809 | 0.655 | 0.401
NCI-H2087 | 0.972 | 0.75 | 0.342 | 0.118 | 0.133 | 0.674 | 0.466 | 0.595 | 0.706 | 0.786 | 0.184 | 0.184 | 0.19 | 0.0803 | 0.093 | 1.13 | 0.669 | 0.419 | 0.107 | 0.0968
NCI-H2126 | 0.497 | 0.457 | 0.315 | 0.267 | 0.264 | 0.725 | 0.861 | 0.721 | 0.649 | 0.707 | 0.403 | 0.424 | 0.397 | 0.327 | 0.237 | 1.14 | 0.87 | 1.08 | 0.335 | 0.267
NCI-H2170 | 0.36 | 0.37 | 0.217 | 0.135 | 0.171 | 0.809 | 0.817 | 0.712 | 0.749 | 0.737 | 0.392 | 0.242 | 0.253 | 0.109 | 0.124 | 1.02 | 0.277 | 0.28 | 0.199 | 0.227
NCI-H2228 |  | 0.504 | 0.101 | 0.111 | 0.196 | 0.635 | 0.729 | 0.579 | 0.613 | 0.634 | 0.743 | 0.891 | 0.277 | 0.188 | 0.13 | 1.07 | 0.69 | 0.512 | 0.302 | 0.147
NCI-H2347 | 0.841 | 0.895 | 0.387 | 0.324 | 0.369 | 0.433 | 0.356 | 0.49 | 0.463 | 0.346 | 0.426 | 0.46 | 0.399 | 0.312 | 0.339 | 0.832 | 0.906 | 0.567 | 0.528 | 0.402
NCI-H2405 | 0.452 | 0.73 | 0.505 | 0.246 | 0.254 | 0.602 | 0.633 | 0.611 | 0.622 | 0.662 | 0.516 | 0.456 | 0.41 | 0.22 | 0.252 | 1.08 | 0.928 | 0.76 | 0.319 | 0.293
NCI-H3122 | 0.591 | 0.376 | 0.222 | 0.153 | 0.136 | 1.23 | 0.953 | 0.963 | 1.01 | 0.896 | 0.162 | 0.0893 | 0.129 | 0.0849 | 0.0684 | 0.903 | 0.385 | 0.232 | 0.106 | 0.0762
PC-3 [JPC-3] | 0.904 | 0.817 | 0.334 | 0.251 | 0.313 | 0.839 | 0.847 | 0.76 | 0.822 | 0.855 | 0.556 | 0.53 | 0.373 | 0.346 | 0.46 | 1.05 | 0.976 | 0.688 | 0.375 | 0.293
PC-14 | 0.849 | 0.634 | 0.307 | 0.0791 | 0.0776 | 1.06 | 0.854 | 0.757 | 0.939 | 0.83 | 0.463 | 0.416 | 0.138 | 0.0525 | 0.0516 | 1.1 | 0.852 | 0.43 | 0.174 | 0.139
RERF-LC-KJ | 0.532 | 0.315 | 0.154 | 0.139 | 0.192 | 0.648 | 0.66 | 0.597 | 0.652 | 0.575 | 0.875 | 0.363 | 0.184 | 0.152 | 0.218 | 0.745 | 0.482 | 0.247 | 0.202 | 0.216
SK-LU-1 | 0.411 | 0.505 | 0.383 | 0.171 | 0.172 | 0.435 | 0.37 | 0.401 | 0.416 | 0.387 | 0.467 | 0.43 | 0.253 | 0.195 | 0.202 | 0.924 | 0.615 | 0.26 | 0.14 | 0.174
SK-MES-1 | 0.425 | 0.535 | 0.356 | 0.174 | 0.198 | 0.626 | 0.649 | 0.637 | 0.654 | 0.712 | 0.294 | 0.207 | 0.225 | 0.128 | 0.203 | 1.11 | 1.11 | 0.646 | 0.213 | 0.239
SW 1573 | 0.487 | 0.637 | 0.22 | 0.0805 | 0.0657 | 0.959 | 0.656 | 0.665 | 0.625 | 0.846 | 0.375 | 0.306 | 0.155 | 0.0802 | 0.0896 | 0.967 | 0.982 | 0.875 | 0.156 | 0.0921
